# Results taken from patent publication US10583109B2, “Use of silver(I) complexes as anticancer agents” (University of Johannesburg, priority 2012, dated 2020).
# Tested on: A-549 lung cancer cells
# Assay: Morphological features of A-549 lung cancer cells by inverse light microscopy
# Assay type: cell-based
# Details: A-549 cells
# Experimental: Morphological studies were conducted using a Zeiss Axiovert 25 Inverted Light Microscope [Carl Zeiss, Germany] with photographs taken with an Axio Cam Camera and Axio Vision 3.1 software [Carl Zeiss, Germany] at 100× magnification.
# Morphological features of A-549 lung cancer cells evaluated by inverse light microscopy following differential treatments are indicated in FIG. 28: (A)=Untreated Negative Control; (B)=1% DMSO Vehicle Control (VC); (C)=100 μM Cisplatin (CDDP) Positive Apoptotic Control; (D)=Hydrogen Peroxide Positive Necrotic Control; (E)=complex (6) having a molar ratio of 1:1; (F)=Triphenylphosphine Ligand; (G)=complex (9) having a molar ratio of 1:4. Cells were visualised with Zeiss Axiovert 25 Inverted Light Microscope with photographs taken at 100× magnification. Morphology of A-549 lung cancer cells after differential treatments resembled that of the positive apoptotic control with characteristic apoptotic cellular morphology such as blebbing, rounding and cell shrinkage being observed.
structure (smiles),measurement,value
"c1ccc([P+](c2ccccc2)(c2ccccc2)[Ag+]([P+](c2ccccc2)(c2ccccc2)c2ccccc2)([P+](c2ccccc2)(c2ccccc2)c2ccccc2)[P+](c2ccccc2)(c2ccccc2)c2ccccc2)cc1 [complex (9), AgNO3(PPh3)4]",signs of apoptosis (morphology),more effective
